We go through 27 molecules from patent US20050043326A1, “Compounds” (Pfizer Inc, priority 2003, published 2005).

The first assay relates to PDE4. Kind of assay: PDE4 inhibition: hydrolysis of tritium labelled cAMP to AMP, SPA bead scintillation counting. The class given is biochemical. The conditions noted are these: tritium labelled cAMP incubated with PDE4, yttrium silicate SPA beads. As for the experimental part: The PDE4 inhibitory activity of the nicotinamide derivatives of the formula (I) is determined by the ability of compounds to inhibit the hydrolysis of cAMP to AMP by PDE4 (Thompson J W, Teraski W L, Epstein P M, Strada S J., “Assay of nucleotidephosphodiesterase and resolution of multiple molecular forms of the isoenzyme”, Advances in cyclic nucleotides research, edited by Brooker G, Greengard P, Robinson G A. Raven Press, New York 1979, 10, p. 69-92). Tritium labelled cAMP is incubated with PDE4. Following incubation, the radiolabelled AMP produced is able to bind yttrium silicate SPA beads. These SPA beads subsequently produce light that can be quantified by scintillation counting. The addition of a PDE4 inhibitor prevents the formation of AMP from cAMP and counts are diminished. The IC50 of a PDE4 inhibitor can be defined as the concentration of a compound that leads to a 50% reduction in counts compared to the PDE4 only (no inhibitor) control wells.
(§1) Data are presented below for the Examples in which the TNFα and PDE4 inhibition are presented as IC50 values in nM.
By IC50 is commonly meant the point on the concentration scale where inhibition reaches its midpoint. Molecule `Cc1cc(C(=O)N[C@H]2CC[C@@H](NC(=O)c3cc(F)cnc3OC3CCSCC3)CC2)nn1C` [Example 42] had an IC50 of 0.3 nM.

A further assay relates to TNFα release from human peripheral blood mononuclear cells. Kind of assay: Inhibition of TNFα release from LPS-stimulated human peripheral blood mononuclear cells (TNFα screen). The following applies: 18 hours incubation, TNFα in supernatant by ELISA. The class given is cell-based. The protocol:
Venous blood is collected from healthy volunteers and the mononuclear cells purified by centrifugation through Histopaque (Ficoll) cushions. TNFα production from these cells is stimulated by addition of lipopolysaccharide. After 18 hours incubation in the presence of LPS, the cell supernatant is removed and the concentration of TNFα in the supernatant determined by ELISA.
as §1
The molecule `O=C(N[C@H]1CC[C@@H](NC(=O)c2cc(Cl)cc(Cl)c2O)CC1)c1cc(F)cnc1OC1CCSCC1` [Example 26, Syn-N-[4-(3,5-Dichloro-2-hydroxy-benzoylamino)-cyclohexyl]-5-fluoro-2-(tetrahydro-thiopyran-4-yloxy)-nicotinamide] showed an IC50 of 14 nM.

In turn, `O=C(NC1CCC(NS(=O)(=O)c2c(O)ccc3cccnc23)CC1)c1cc(F)cnc1OC1CCSCC1` (stereo not drawn) [Example 72, Syn-5-Fluoro-N-[4-(7-hydroxy-quinoline-8-sulfonylamino)-cyclohexyl]-2-(tetrahydro-thiopyran-4-yloxy)-nicotinamide] registered an IC50 of 0.001 nM. This IC50 lies about 14000-fold lower than the previous one.

Regarding `O=C(NC1CCC(NS(=O)(=O)c2c(O)ccc3cccnc23)CC1)c1cccnc1OC1CCSCC1` (stereo not drawn) [Example 73, Syn-N-[4-(7-hydroxy-quinoline-8-sulfonylamino)-cyclohexyl]-2-(tetrahydro-thiopyran-4-yloxy)-nicotinamide], inhibition was half-maximal at 0.03 nM (IC50).

The same assay, now with this note: PBMC, 18 hours incubation, TNFα in supernatant by ELISA.
As to `O=C(N[C@H]1CC[C@@H](NC(=O)c2cc(F)cnc2OC2CCSCC2)CC1)c1ccc(Cl)cc1O` [Example 15, Syn-N-[4-(4-Chloro-2-hydroxy-benzoylamino)-cyclohexyl]-5-fluoro-2-(tetrahydro-thiopyran-4-yloxy)-nicotinamide], inhibition was half-maximal at 0.4 nM (IC50).

Consider `O=C(N[C@H]1CC[C@@H](NC(=O)c2cc(F)cnc2OC2CCSCC2)CC1)c1cc(F)ccc1O` [Example 25, Syn-5-Fluoro-N-[4-(5-fluoro-2-hydroxy-benzoylamino)-cyclohexyl]-2-(tetrahydro-thiopyran-4-yloxy)-nicotinamide], for which the IC50 was 0.8 nM.

For `O=C(N[C@H]1CC[C@@H](NC(=O)c2cc(F)cnc2OC2CCSCC2)CC1)c1cc(Cl)ccc1O` [Example 27, Syn-N-[4-(5-Chloro-2-hydroxy-benzoylamino)-cyclohexyl]-5-fluoro-2-(tetrahydro-thiopyran-4-yloxy)-nicotinamide], the IC50 was determined as 0.7 nM.

`Cc1cccc(C(=O)N[C@H]2CC[C@@H](NC(=O)c3cc(F)cnc3OC3CCSCC3)CC2)c1O` [Example 28, Syn-5-Fluoro-N-[4-(2-hydroxy-3-methyl-benzoylamino)-cyclohexyl]-2-(tetrahydro-thiopyran-4-yloxy)-nicotinamide] yielded an IC50 of 12 nM.

In the case of `O=C(N[C@H]1CC[C@@H](NC(=O)c2cc(F)cnc2OC2CCSCC2)CC1)c1ccccc1O` [Example 29, Syn-5-Fluoro-N-[4-(2-hydroxy-benzoylamino)-cyclohexyl]-2-(tetrahydro-thiopyran-4-yloxy)-nicotinamide], half-maximal inhibition (IC50) required 0.4 nM. Compared with the last molecule, the IC50 is about 30-fold lower.

`O=C(N[C@H]1CC[C@@H](NC(=O)c2cc(O)nc3ccccc23)CC1)c1cc(F)cnc1OC1CCSCC1` [Example 30, Syn-2-Hydroxy-guinoline-4-carboxylic acid (4-{[5-fluoro-2-(tetrahydro-thiopyran-4-yloxy)-pyridine-3-carbonyl]-amino}-cyclohexyl)-amide] had an IC50 of 2 nM.

On to `Cc1cc(C(=O)N[C@H]2CC[C@@H](NC(=O)c3cc(F)cnc3OC3CCSCC3)CC2)c2cc(O)ccc2n1` [Example 31, Syn-6-Hydroxy-2-methyl-quinoline-4-carboxylic acid (4-{[5-fluoro-2-(tetrahydro-thiopyran-4-yloxy)-pyridine-3-carbonyl]-amino}-cyclohexyl)-amide], for which half-maximal inhibition (IC50) required 1 nM.

The molecule `O=C(N[C@H]1CC[C@@H](NC(=O)c2ccnc3c(O)cccc23)CC1)c1cc(F)cnc1OC1CCSCC1` [Example 32, Syn-8-Hydroxy-quinoline-4-carboxylic acid (4-{[5-fluoro-2-(tetrahydro-thiopyran-4-yloxy)-pyridine-3-carbonyl]-amino}-cyclohexyl)-amide] had an IC50 of 10 nM.

`O=C(N[C@H]1CC[C@@H](NC(=O)c2cccc3cn[nH]c23)CC1)c1cc(F)cnc1OC1CCSCC1` [Example 33, Syn-1H-Indazole-7-carboxylic acid (4-{[5-fluoro-2-(tetrahydro-thiopyran-4-yloxy)-pyridine-3-carbonyl]-amino}-cyclohexyl)-amide] returned an IC50 of 0.07 nM.

For `O=C(N[C@H]1CC[C@@H](NC(=O)c2cc(F)cnc2OC2CCSCC2)CC1)c1ccc2cn[nH]c2c1` [Example 34, Syn-1H-Indazole-6-carboxylic acid (4-{[5-fluoro-2-(tetrahydro-thiopyran-4-yloxy)-pyridine-3-carbonyl]-amino}-cyclohexyl)-amide], the IC50 amounted to 1 nM.

The molecule `Cc1cc(C(=O)N[C@H]2CC[C@@H](NC(=O)c3cc(F)cnc3OC3CCSCC3)CC2)nn1C` [Example 42] returned an IC50 of 0.02 nM.

The molecule `O=C(N[C@H]1CC[C@@H](NC(=O)c2cccn3c(CO)cnc23)CC1)c1cc(F)cnc1OC1CCSCC1` [Example 51, Syn-3-Hydroxymethyl-imidazo[1,2-a]pyridine-8-carboxylic acid (4-{[5-fluoro-2-(tetrahydro-thiopyran-4-yloxy)-pyridine-3-carbonyl]-amino}-cyclohexyl)-amide] came in with an IC50 of 0.1 nM.

`Cc1cc(C(=O)N[C@H]2CC[C@@H](NC(=O)c3cc(F)cnc3OC3CCSCC3)CC2)nn1CCO` [Example 52, Syn-5-Fluoro-N-(4-{[1-(2-hydroxy-ethyl)-5-methyl-1H-pyrazole-3-carbonyl]-amino}-cyclohexyl)-2-(tetrahydro-thiopyran-4-yloxy)-nicotinamide] registered an IC50 of 0.03 nM.

The molecule `O=C(N[C@H]1CC[C@@H](NC(=O)c2nn(CCO)c3ccccc23)CC1)c1cc(F)cnc1OC1CCSCC1` [Example 53, Syn-1-(2-Hydroxy-ethyl)-1H-indazole-3-carboxylic acid (4-{[5-fluoro-2-(tetrahydro-thiopyran-4-yloxy)-pyridine-3-carbonyl]-amino}-cyclohexyl)-amide] registered a half-maximal inhibitory concentration (IC50) of 0.01 nM. This IC50 lies about 3-fold lower than the previous one.

`CCc1cc(C(=O)N[C@H]2CC[C@@H](NC(=O)c3cc(F)cnc3OC3CCSCC3)CC2)nn1CCO` [Example 54, Syn-N-(4-{[5-Ethyl-1-(2-hydroxy-ethyl)-1H-pyrazole-3-carbonyl]-amino}-cyclohexyl)-5-fluoro-2-(tetrahydro-thiopyran-4-yloxy)-nicotinamide] returned an IC50 of 0.1 nM.

On to `CCc1cc(C(=O)N[C@H]2CC[C@@H](NC(=O)c3cc(F)cnc3OC3CCSCC3)CC2)n(CCO)n1` [Example 55, Syn-N-(4-{[5-Ethyl-2-(2-hydroxy-ethyl)-2H-pyrazole-3-carbonyl]-amino}-cyclohexyl)-5-fluoro-2-(tetrahydro-thiopyran-4-yloxy)-nicotinamide], for which the IC50 is 17 nM.

As for `CC(C)c1cc(C(=O)N[C@H]2CC[C@@H](NC(=O)c3cc(F)cnc3OC3CCSCC3)CC2)n(CCO)n1` [Example 56, Syn-5-Fluoro-N-(4-{[2-(2-hydroxy-ethyl)-5-isopropyl-2H-pyrazole-3-carbonyl]-amino}-cyclohexyl)-2-(tetrahydro-thiopyran-4-yloxy)-nicotinamide], the IC50 came out at 20 nM.

In turn, `CC(C)c1cc(C(=O)N[C@H]2CC[C@@H](NC(=O)c3cc(F)cnc3OC3CCSCC3)CC2)nn1CCO` [Example 57, Syn-5-Fluoro-N-(4-{[1-(2-hydroxy-ethyl)-5-isopropyl-1H-pyrazole-3-carbonyl]-amino}-cyclohexyl)-2-(tetrahydro-thiopyran-4-yloxy)-nicotinamide] yielded an IC50 of 0.07 nM. Against the preceding molecule, the IC50 is about 290-fold lower.

On to `O=C(N[C@H]1CC[C@@H](NC(=O)c2cc(F)cnc2OC2CCSCC2)CC1)c1ccc(O)cc1O` [Example 58, Syn-N-[4-(2,4-Dihydroxy-benzoylamino)-cyclohexyl]-5-fluoro-2-(tetrahydro-thiopyran-4-yloxy)-nicotinamide], for which half-maximal inhibition (IC50) was put at 1 nM.

On to `Cc1cnc2c(C(=O)N[C@H]3CC[C@@H](NC(=O)c4cc(F)cnc4OC4CCSCC4)CC3)cccn12` [Example 60, Syn-3-Methyl-imidazo[1,2a]pyridine-8-carboxylic acid (4-{[5-fluoro-2-(tetrahydro-thiopyran-4-yloxy)-pyridine-3-carbonyl]-amino}-cyclohexyl)-amide], for which the IC50 is 0.06 nM.

Consider `O=C(N[C@H]1CC[C@@H](NC(=O)c2cc(Cl)cnc2OC2CCSCC2)CC1)c1cc(CO)ccc1O` [Example 61, Syn-5-Chloro-N-[4-(2-hydroxy-5-hydroxymethyl-benzoylamino)-cyclohexyl]-2-(tetrahydro-thiopyran-4-yloxy)-nicotinamide], for which the IC50 is 3 nM.

`Cc1cnc(OC2CCSCC2)c(C(=O)N[C@H]2CC[C@@H](NC(=O)c3cc(CO)ccc3O)CC2)c1` [Example 62, Syn-N-[4-(2-Hydroxy-5-hydroxymethyl-benzoylamino)-cyclohexyl]-5-methyl-2-(tetrahydro-thiopyran-4-yloxy)-nicotinamide] gave an IC50 of 12 nM.

Turning to `Cc1ccc(S(=O)(=O)N[C@H]2CC[C@@H](NC(=O)c3cc(F)cnc3OC3CCSCC3)CC2)cc1` [Example 69, Syn-5-Fluoro-2-(tetrahydro-thiopyran-4-yloxy)-N-[4-(toluene-4-sulfonylamino)-cyclohexyl]-nicotinamide], inhibition was half-maximal at 15 nM (IC50). The IC50 values of the last two molecules are within 1.5-fold of each other.

For the molecule `Cc1ccccc1S(=O)(=O)N[C@H]1CC[C@@H](NC(=O)c2cc(F)cnc2OC2CCSCC2)CC1` [Example 70, Syn-5-Fluoro-2-(tetrahydro-thiopyran-4-yloxy)-N-[4-(toluene-2-sulfonylamino)-cyclohexyl]-nicotinamide], 2 nM corresponded to half-maximal inhibition (IC50). Compared with the last molecule, the IC50 is about 7.5-fold lower.
